Results taken from patent US20250179103A1, “6-OXODECAHYDROPYRROLO[1,2-A][1,5]DIAZOCINE AND 6-OXODECAHYDRO-4H-PYRROLO[2,1-D][1,5]THIAZOCINE DERIVATIVES AS STAT3 AND STAT6 MODULATORS FOR THE TREATMENT OF CANCER AND INFLAMMATORY CONDITIONS” (Recludix Pharma, Inc., priority 2022, published 2025).

Experiments:
[1] = target: T1, Recombinant STAT6 protein (STAT6(W123-T658)) (Homo sapiens, UniProt P42226); assay: STAT6 Fluorescence Polarization (FP) Assay; format: binding; settings: STAT6(W123-T658) 250 nM, probe 5-FAM-ApYKPFQDLI-NH2 2 nM, 45-minute incubation
T1 construct: Recombinant STAT6 protein (STAT6(W123-T658))
T1 sequence (P42226 123-658): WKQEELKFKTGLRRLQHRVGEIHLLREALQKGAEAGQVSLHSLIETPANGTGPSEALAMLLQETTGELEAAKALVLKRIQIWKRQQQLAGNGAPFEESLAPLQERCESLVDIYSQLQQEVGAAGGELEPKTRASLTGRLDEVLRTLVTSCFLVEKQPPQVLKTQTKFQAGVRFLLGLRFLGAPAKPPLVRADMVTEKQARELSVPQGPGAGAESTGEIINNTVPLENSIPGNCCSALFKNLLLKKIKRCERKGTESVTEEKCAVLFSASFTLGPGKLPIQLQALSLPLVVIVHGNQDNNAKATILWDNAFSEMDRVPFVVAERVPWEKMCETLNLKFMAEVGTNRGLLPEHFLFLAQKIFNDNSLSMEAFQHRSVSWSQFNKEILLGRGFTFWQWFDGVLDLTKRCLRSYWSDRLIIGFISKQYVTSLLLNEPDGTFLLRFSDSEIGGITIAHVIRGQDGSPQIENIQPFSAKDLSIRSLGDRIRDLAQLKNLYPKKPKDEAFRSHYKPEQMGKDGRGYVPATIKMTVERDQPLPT
Outline: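 Displacement of a fluorescent phosphotyrosine peptide (5-FAM-ApYKPFQDLI-NH2, 2 nM) from STAT6(W123-T658) (250 nM), 1% DMSO, pH 7.4 HEPES buffer. After 45 min at room temperature, polarization (mP) was plotted versus log compound concentration and fitted by nonlinear regression to give IC50.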

[2] = target: T2, Recombinant STAT3 protein (STAT3(G127-I722)) (Homo sapiens, UniProt P40763); assay: STAT3 Fluorescence Polarization (FP) Assay; format: binding; settings: STAT3(G127-I722) 25 nM, probe 5-FAM-GpYLPQTV-NH2 2 nM, 45-minute incubation
T2 construct: Recombinant STAT3 protein (STAT3(G127-I722))
T2 sequence (P40763 127-722): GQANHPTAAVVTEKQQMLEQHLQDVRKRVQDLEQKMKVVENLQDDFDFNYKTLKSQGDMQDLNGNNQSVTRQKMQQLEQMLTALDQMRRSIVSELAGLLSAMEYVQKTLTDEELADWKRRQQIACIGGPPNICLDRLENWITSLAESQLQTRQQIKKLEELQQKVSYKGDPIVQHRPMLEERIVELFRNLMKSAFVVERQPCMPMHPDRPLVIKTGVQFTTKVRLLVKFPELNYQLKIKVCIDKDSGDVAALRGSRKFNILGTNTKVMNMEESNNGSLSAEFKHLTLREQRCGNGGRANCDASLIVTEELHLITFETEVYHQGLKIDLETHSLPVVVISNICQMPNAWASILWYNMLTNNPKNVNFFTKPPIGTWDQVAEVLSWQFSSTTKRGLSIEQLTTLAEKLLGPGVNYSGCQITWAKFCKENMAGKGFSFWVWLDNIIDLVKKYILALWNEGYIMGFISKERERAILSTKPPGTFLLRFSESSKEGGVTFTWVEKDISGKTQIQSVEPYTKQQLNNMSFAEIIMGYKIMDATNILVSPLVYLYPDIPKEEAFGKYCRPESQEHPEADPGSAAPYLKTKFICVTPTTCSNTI
Outline: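 STAT3(G127-I722), 25 nM, was mixed with 2 nM 5-FAM-GpYLPQTV-NH2 probe in HEPES pH 7.4 buffer with 1% DMSO and serially diluted compound. FP (mP) was read after 45 min at room temperature. IC50 came from nonlinear regression.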

IC50 [1] [µM]	IC50 [2] [µM]	SMILES
0.3 to 3	1 to 10	CC(=O)N1CC[C@H]2CC[C@@H](C(=O)N(C)c3ccccc3)N2C(=O)[C@@H](NC(=O)c2cc3cc(C(F)(F)P(=O)(O)O)ccc3s2)C1 [Compound 109, ((2-(((5S,8S,10aR)-3-acetyl-8-(methyl(phenyl)carbamoyl)-6-oxodecahydropyrrolo[1,2-a][1,5]diazocin-5-yl)carbamoyl)benzo[b]thiophen-5-yl)difluoromethyl)phosphonic acid]
0.3 to 3	> 10	CC(=O)N1CC[C@H]2CC[C@@H](C(=O)N(C)c3ccccc3)N2C(=O)[C@@H](NC(=O)c2ccc3ccc(C(F)(F)P(=O)(O)O)cc3c2)C1 [Compound 111, ((7-(((5S,8S,10aR)-3-acetyl-8-(methyl(phenyl)carbamoyl)-6-oxodecahydropyrrolo[1,2-a][1,5]diazocin-5-yl)carbamoyl)naphthalen-2-yl)difluoromethyl)phosphonic acid]
> 30	> 10	CC(=O)N1CC[C@H]2CC[C@@H](C(=O)N(C)c3ccccc3)N2C(=O)[C@@H](NC(=O)c2ccc3cc(C(F)(F)P(=O)(O)O)ccc3c2)C1 [Compound 112, ((6-(((5S,8S,10aR)-3-acetyl-8-(methyl(phenyl)carbamoyl)-6-oxodecahydropyrrolo[1,2-a][1,5]diazocin-5-yl)carbamoyl)naphthalen-2-yl)difluoromethyl)phosphonic acid]
> 30	> 10	CC(=O)N1CC[C@H]2CC[C@@H](C(=O)N(C)c3ccccc3)N2C(=O)[C@@H](NC(=O)c2ccc3cc(P(=O)(O)O)ccc3c2)C1 [Compound 113, (6-(((5S,8S,10aR)-3-acetyl-8-(methyl(phenyl)carbamoyl)-6-oxodecahydropyrrolo[1,2-a][1,5]diazocin-5-yl)carbamoyl)naphthalen-2-yl)phosphonic acid]
> 30	> 10	CC(=O)N1CC[C@H]2CC[C@@H](C(=O)N(C)c3ccccc3)N2C(=O)[C@@H](NC(=O)c2ccc3ccc(P(=O)(O)O)cc3c2)C1 [Compound 114, (7-(((5S,8S,10aR)-3-acetyl-8-(methyl(phenyl)carbamoyl)-6-oxodecahydropyrrolo[1,2-a][1,5]diazocin-5-yl)carbamoyl)naphthalen-2-yl)phosphonic acid]

The remaining lines, values behind:

SMILES	IC50 [1] [µM]	IC50 [2] [µM]
CC(=O)N1CC[C@H]2CC[C@@H](C(=O)Nc3ccc(-n4ccccc4=O)cc3)N2C(=O)[C@@H](NC(=O)c2cc3cc(C(F)(F)P(=O)(O)O)ccc3[nH]2)C1 [Compound 103, ((2-(((5S,8S,10aR)-3-acetyl-6-oxo-8-((4-(2-oxopyridin-1(2H)-yl)phenyl)carbamoyl)decahydropyrrolo[1,2-a][1,5]diazocin-5-yl)carbamoyl)-1H-indol-5-yl)difluoromethyl)phosphonic acid]	3 to 30	1 to 10
CC(=O)N1CC[C@H]2CC[C@@H](C(=O)N3CCC3Cc3ccccc3)N2C(=O)[C@@H](NC(=O)c2cc3cc(C(F)(F)P(=O)(O)O)ccc3[nH]2)C1 (stereo partly drawn) [Compound 104, ((2-(((5S,8S,10aR)-3-acetyl-8-(2-benzylazetidine-1-carbonyl)-6-oxodecahydropyrrolo[1,2-a][1,5]diazocin-5-yl)carbamoyl)-1H-indol-5-yl)difluoromethyl)phosphonic acid]	0.3 to 3	1 to 10
CC(=O)N1CC[C@H]2CC[C@@H](C(=O)Nc3ccn(-c4ccccc4)c(=O)c3C#N)N2C(=O)[C@@H](NC(=O)c2cc3cc(C(F)(F)P(=O)(O)O)ccc3[nH]2)C1 [Compound 105, ((2-(((5S,8S,10aR)-3-acetyl-8-((3-cyano-2-oxo-1-phenyl-1,2-dihydropyridin-4-yl)carbamoyl)-6-oxodecahydropyrrolo[1,2-a][1,5]diazocin-5-yl)carbamoyl)-1H-indol-5-yl)difluoromethyl)phosphonic acid]	0.3 to 3	0.1 to 1
CC(=O)N1CC[C@H]2CC[C@@H](C(=O)N3CCCC[C@H]3Cc3ccccc3)N2C(=O)[C@@H](NC(=O)c2cc3cc(C(F)(F)P(=O)(O)O)ccc3[nH]2)C1 [Compound 106, ((2-(((5S,8S,10aR)-3-acetyl-8-((S)-2-benzylpiperidine-1-carbonyl)-6-oxodecahydropyrrolo[1,2-a][1,5]diazocin-5-yl)carbamoyl)-1H-indol-5-yl)difluoromethyl)phosphonic acid]	0.3 to 3	1 to 10
CC(=O)N1CC[C@H]2CC[C@@H](C(=O)N3CCC[C@@H](c4ccccc4)C3)N2C(=O)[C@@H](NC(=O)c2cc3cc(C(F)(F)P(=O)(O)O)ccc3[nH]2)C1 [Compound 107, ((2-(((5S,8S,10aR)-3-acetyl-6-oxo-8-((S)-3-phenylpiperidine-1-carbonyl)decahydropyrrolo[1,2-a][1,5]diazocin-5-yl)carbamoyl)-1H-indol-5-yl)difluoromethyl)phosphonic acid]	≤ 0.3	1 to 10
CC(=O)N1CC[C@H]2CC[C@@H](C(=O)N(C)c3ccccc3C#N)N2C(=O)[C@@H](NC(=O)c2cc3cc(C(F)(F)P(=O)(O)O)ccc3[nH]2)C1 [Compound 108, ((2-(((5S,8S,10aR)-3-acetyl-8-((2-cyanophenyl)(methyl)carbamoyl)-6-oxodecahydropyrrolo[1,2-a][1,5]diazocin-5-yl)carbamoyl)-1H-indol-5-yl)difluoromethyl)phosphonic acid]	0.3 to 3	1 to 10
CC(=O)N1CC[C@H]2CC[C@@H](C(=O)N(C)c3ccccc3)N2C(=O)[C@@H](NC(=O)c2cc3cc(C(F)(F)P(=O)(O)O)cnc3s2)C1 [Compound 110, ((2-(((5S,8S,10aR)-3-acetyl-8-(methyl(phenyl)carbamoyl)-6-oxodecahydropyrrolo[1,2-a][1,5]diazocin-5-yl)carbamoyl)thieno[2,3-b]pyridin-5-yl)difluoromethyl)phosphonic acid]	3 to 30	1 to 10
CC(=O)N1CC[C@H]2CC[C@@H](C(=O)N(C)c3ccccc3)N2C(=O)[C@@H](NC(=O)c2nc3cc(C(F)(F)P(=O)(O)O)ccc3s2)C1 [Compound 115, ((2-(((5S,8S,10aR)-3-acetyl-8-(methyl(phenyl)carbamoyl)-6-oxodecahydropyrrolo[1,2-a][1,5]diazocin-5-yl)carbamoyl)benzo[d]thiazol-5-yl)difluoromethyl)phosphonic acid]	0.3 to 3	> 10
CC(=O)N1CC[C@H]2CC[C@@H](C(=O)N3CCC(C(N)=O)c4cc(-c5ccccc5)ccc43)N2C(=O)[C@@H](NC(=O)c2cc3cc(C(F)(F)P(=O)(O)O)ccc3s2)C1 (stereo partly drawn) [Compound 116, ((2-(((5S,8S,10aR)-3-acetyl-8-(4-carbamoyl-6-phenyl-1,2,3,4-tetrahydroquinoline-1-carbonyl)-6-oxodecahydropyrrolo[1,2-a][1,5]diazocin-5-yl)carbamoyl)benzo[b]thiophen-5-yl)difluoromethyl)phosphonic acid]	0.3 to 3	0.1 to 1
CC(=O)N1CC[C@H]2CC[C@@H](C(=O)N(C)c3ccc(C(C)(C)C)cc3)N2C(=O)[C@@H](NC(=O)c2ccc3ccc(C(F)(F)P(=O)(O)O)cc3c2)C1 [Compound 117, ((7-(((5S,8S,10aR)-3-acetyl-8-((4-(tert-butyl)phenyl)(methyl)carbamoyl)-6-oxodecahydropyrrolo[1,2-a][1,5]diazocin-5-yl)carbamoyl)naphthalen-2-yl)difluoromethyl)phosphonic acid]	0.3 to 3	> 10
